Experimental data: patent publication US20200163938A1, “PHARMACEUTICAL COMPOSITION COMPRISING IRON CHELATOR EXHIBITING ANTITUMOR ACTIVITY, ANTIBACTERIAL ACTIVITY AND/OR ANTIVIRUS ACTIVITY, AND HAVING REDUCED SIDE EFFECTS” (priority 2017, published 2020)
Values joined by “and” are separate entries in the source; they are usually repeats but may differ in a detail not shown here. Equal values may be shown once. Read-outs that look alike come from different tables or passages of the source.

Legend:
[1] = system: A549 cells; test: Apoptosis induction, TUNEL staining; type: cell-based, human; conditions: 100 μg/mL, 48 hours, FIG. 11C
Procedure: Furthermore, the apoptosis-inducing effects of the chelating agents of test groups 6 and 10 on tumors were confirmed. First, 100 μg/mL of the chelating agent of test group 6 or 50 μg/mL of the chelating agent of test group 10 was added to HSC-2 cells in a culture solution. After 48 hours of reaction, TUNEL Assay was carried out. Specifically, apoptosis induction was evaluated by the TUNEL staining method using a MK500 in situ Apoptosis Detection Kit (Takara Bio Inc.).
Further, the apoptosis-inducing effects of the chelating agent of test group 6 or 10 on A549 cells were confirmed. 100 μg/mL of the chelating agent of test group 6 was added and 50 μg/mL of the chelating agent of test group 10 was added to the cells. After 48 hours of reaction, TUNEL staining was carried out similarly to the above.

[2] = type: in vivo; parameters: NEFA: unit not given here; conditions: for Body weight: rats
Procedure: To a negative control group (saline administration; n=6), the same amount of saline was administered. On day 14 after administration, determining life or death, measurement of body weight, physical items (respiration, body temperature, behavior, etc.) were observed. Moreover, blood samples were taken from each group, and the right kidneys and the livers were removed. Results were as depicted in FIG. 5A to 5C and Tables 4 to 9.

[3] = rat blood, oral 200 mg/kg, day 14
[4] = rat blood, oral 1000 mg/kg, day 14, 1000 mg/kg

## Cl.OCC1OC(O)C(NCc2ccc(O)c(O)c2O)C(O)C1O (stereo not drawn) [Test group 6]
[1]
  apoptosis-inducing effects (TUNEL staining): green-stained cells (FITC positive cells) indicating apoptosis were confirmed
[2]; [3]
  ALP: 745 IU/L
  ALT: 34 IU/L
  AST: 58 IU/L
  BUN: 27.2 mg/dL
  CRE: 0.37 mg/dL
  Ca: 10.2 mg/dL
  GLU: 212 mg/dL
  K: 3.6 mEQ/L
  LD: 45 IU/L
  NEFA: 58
  Na: 141 mEQ/L
  T-Bil: 0.03 mg/dL
  TP: 5.1 g/dL
[2]; [4]
  ALP: 437 IU/L and 471 IU/L
  BUN: 22.2 mg/dL and 28.9 mg/dL
  CRE: 0.31 mg/dL and 0.48 mg/dL
  Ca: 10.2 mg/dL and 11.0 mg/dL
  GLU: 159 mg/dL and 199 mg/dL
  K: 4.5 mEQ/L and 4.1 mEQ/L
  Na: 144 mEQ/L and 143 mEQ/L
  TP: 5.4 g/dL and 5.1 g/dL
[2]; oral 200 mg/kg
  Body weight: 180.37 g
[2]; oral 1000 mg/kg, 1000 mg/kg
  Body weight: 174.48 g and 178.68 g
